Values of other authors as cited in US20240099974A1, “TREATMENT AGENT” (FUJIFILM Corporation, priority 2021, published 2024).

Conditions: iv; Mould et al., 2002, Ait-Oudhia, Mager and Straubinger 2014

clearance in a case where topotecan is intravenously administered: 18.6 L/h
SMILES: CC[C@@]1(O)C(=O)OCc2c1cc1n(c2=O)Cc2cc3c(CN(C)C)c(O)ccc3nc2-1 [topotecan]
